# Measured values as given in patent publication US9346769B2, “Tetrazolones as inhibitors of fatty acid synthase” (Infinity Pharmaceuticals, Inc., priority 2010, dated 2016).
# Target: T1, human FASN (Homo sapiens, UniProt P49327)
# T1 construct: was purified from SKBR3 cells using procedures modified from those in Jayakumar et al; endogenous in cells; host or cells: SKBR3 human breast cancer cells (ATCC); Endogenous enzyme purified by ammonium sulfate precipitation and a mono Q column
# Experiment: FASN Scintillation Proximity Flashplate Assay
# Type: biochemical
# Conditions: human FASN purified from SKBR3 cells; unstarred symbols
# Experimental: Human FASN protein (SEQ ID NO. 1) was purified from SKBR3 cells using procedures modified from those in Jayakumar et al. PNAS 1995, 92:8695-8699. SKBR3 cells were obtained from ATCC and grown in DMEM high glucose medium supplemented with 10% FBS, 1 μg/mL bovine pancreas insulin, 100 U/mL penicillin and 100 µg/mL streptomycin. The confluent cells were trypsinized and washed three times with PBS buffer before frozen in liquid N2 and stored at −80° C. Frozen cells were thawed on ice and resuspended in lysis buffer (25 mM Tris-HCl, pH 7.0, 15 mM NaCl, 1 mM EDTA, and 1 mM DTT) with protease inhibitors. The cells were lysed by sonication, and the cell debris was removed by centrifugation at 20,000 rpm for 30 min. To the supernatant, neutralized saturated ammonium sulfate solution was added to a final concentration of 35%. The solution was left on ice for 1 hr, and the precipitated proteins were harvested by centrifugation at 20,000 rpm for 30 min. The proteins were redissolved in lysis buffer without NaCl and loaded on a mono Q column. Bound proteins were eluted with a linear gradient of NaCl in lysis buffer. Each fraction was analyzed by SDS-PAGE and FASN NADPH consumption assay. The fractions containing FASN were pooled and concentrated to 2-3 mg/mL. Glycerol was added to 20%, and the protein was frozen in liquid N2 and stored at −80° C.
# Acetyl-coenzyme A, malonyl-coenzyme A, NADPH, bovine gamma globulin, and ORLISTAT were purchased from Sigma (St. Louis, Mo.). Tris(2-carboxyethyl) phosphine hydrochloride (TCEP) was purchased from Pierce Biotechnologies (Rockford, Ill.). [^3H]-acetyl-coenzyme A was purchased from Moravek Biochemicals (Brea, CA). FlashPlate™ PLUS phospholipid 96-well scintillant coated microplates were purchased from Perkin Elmer Life and Analytical Sciences (Shelton, CT). The method of the FASN Scintillation Proximity FlashPlate assay is similar to that described in Weiss and Glickman Assay Drug Dev Technol 2003, 1:161-6. In a 96-well polypropylene microplate, a dilution series (typical concentrations 60 nM-1.0 mM) of test compounds were prepared in DMSO followed by a 20-fold dilution into FASN assay buffer (50 mM potassium phosphate, pH 7.0, 1.0 mM EDTA, 0.01% NP-40), of which 5.0 μL each was transferred to a FlashPlate® PLUS 96-well plate and mixed with 35 μL FASN assay buffer plus 0.5 mg/mL bovine gamma globulin and 1 mM TCEP. FASN protein (10 μL, 10 nM) was added per well, and the microplate was incubated at 37° C. for 30 min. 10 μL of 20 mM NADPH was added, and the reaction was initiated by addition of […] substrate mixture to final concentrations of 1 nM FASN, 100 μM acetyl-coenzyme A, 6 μCi [^3H]-acetyl-coenzyme A, 300 μM malonyl-coenzyme A, 2 mM NADPH, 0.5 mg/mL bovine gamma globulin, and 1 mM TCEP in a volume of 100 μL per well. Assay plates were incubated for 2 hr at 37° C. and the reaction was stopped with 2 μL of 2.5 mM stock solution of ORLISTAT in DMSO to ˜50 μM. The plates were read in a Wallac 1450 Microbeta Plus liquid scintillation counter (Perkin Elmer, Waltham, Mass.), and counts per minute (CPM) were collected over 2 min. Each inhibitor well CPM was compared to the maximum FASN enzyme activity (Max) CPM and the background (Min) CPM, as measured by omission of FASN enzyme in the background well. % Inhibition values were calculated, and curves were fitted by a four-parameter logistic function to yield IC50 values:
# Compounds were assayed as inhibitors of human FASN using the above-described FASN Scintillation Proximity Flashplate Assay (IC50; nM) or FASN NADPH Consumption Assay (*) (IC50; nM). The corresponding activity of the isolated compound is also provided along with the measured mass (ES^+).
# T1 sequence (P49327 whole entry): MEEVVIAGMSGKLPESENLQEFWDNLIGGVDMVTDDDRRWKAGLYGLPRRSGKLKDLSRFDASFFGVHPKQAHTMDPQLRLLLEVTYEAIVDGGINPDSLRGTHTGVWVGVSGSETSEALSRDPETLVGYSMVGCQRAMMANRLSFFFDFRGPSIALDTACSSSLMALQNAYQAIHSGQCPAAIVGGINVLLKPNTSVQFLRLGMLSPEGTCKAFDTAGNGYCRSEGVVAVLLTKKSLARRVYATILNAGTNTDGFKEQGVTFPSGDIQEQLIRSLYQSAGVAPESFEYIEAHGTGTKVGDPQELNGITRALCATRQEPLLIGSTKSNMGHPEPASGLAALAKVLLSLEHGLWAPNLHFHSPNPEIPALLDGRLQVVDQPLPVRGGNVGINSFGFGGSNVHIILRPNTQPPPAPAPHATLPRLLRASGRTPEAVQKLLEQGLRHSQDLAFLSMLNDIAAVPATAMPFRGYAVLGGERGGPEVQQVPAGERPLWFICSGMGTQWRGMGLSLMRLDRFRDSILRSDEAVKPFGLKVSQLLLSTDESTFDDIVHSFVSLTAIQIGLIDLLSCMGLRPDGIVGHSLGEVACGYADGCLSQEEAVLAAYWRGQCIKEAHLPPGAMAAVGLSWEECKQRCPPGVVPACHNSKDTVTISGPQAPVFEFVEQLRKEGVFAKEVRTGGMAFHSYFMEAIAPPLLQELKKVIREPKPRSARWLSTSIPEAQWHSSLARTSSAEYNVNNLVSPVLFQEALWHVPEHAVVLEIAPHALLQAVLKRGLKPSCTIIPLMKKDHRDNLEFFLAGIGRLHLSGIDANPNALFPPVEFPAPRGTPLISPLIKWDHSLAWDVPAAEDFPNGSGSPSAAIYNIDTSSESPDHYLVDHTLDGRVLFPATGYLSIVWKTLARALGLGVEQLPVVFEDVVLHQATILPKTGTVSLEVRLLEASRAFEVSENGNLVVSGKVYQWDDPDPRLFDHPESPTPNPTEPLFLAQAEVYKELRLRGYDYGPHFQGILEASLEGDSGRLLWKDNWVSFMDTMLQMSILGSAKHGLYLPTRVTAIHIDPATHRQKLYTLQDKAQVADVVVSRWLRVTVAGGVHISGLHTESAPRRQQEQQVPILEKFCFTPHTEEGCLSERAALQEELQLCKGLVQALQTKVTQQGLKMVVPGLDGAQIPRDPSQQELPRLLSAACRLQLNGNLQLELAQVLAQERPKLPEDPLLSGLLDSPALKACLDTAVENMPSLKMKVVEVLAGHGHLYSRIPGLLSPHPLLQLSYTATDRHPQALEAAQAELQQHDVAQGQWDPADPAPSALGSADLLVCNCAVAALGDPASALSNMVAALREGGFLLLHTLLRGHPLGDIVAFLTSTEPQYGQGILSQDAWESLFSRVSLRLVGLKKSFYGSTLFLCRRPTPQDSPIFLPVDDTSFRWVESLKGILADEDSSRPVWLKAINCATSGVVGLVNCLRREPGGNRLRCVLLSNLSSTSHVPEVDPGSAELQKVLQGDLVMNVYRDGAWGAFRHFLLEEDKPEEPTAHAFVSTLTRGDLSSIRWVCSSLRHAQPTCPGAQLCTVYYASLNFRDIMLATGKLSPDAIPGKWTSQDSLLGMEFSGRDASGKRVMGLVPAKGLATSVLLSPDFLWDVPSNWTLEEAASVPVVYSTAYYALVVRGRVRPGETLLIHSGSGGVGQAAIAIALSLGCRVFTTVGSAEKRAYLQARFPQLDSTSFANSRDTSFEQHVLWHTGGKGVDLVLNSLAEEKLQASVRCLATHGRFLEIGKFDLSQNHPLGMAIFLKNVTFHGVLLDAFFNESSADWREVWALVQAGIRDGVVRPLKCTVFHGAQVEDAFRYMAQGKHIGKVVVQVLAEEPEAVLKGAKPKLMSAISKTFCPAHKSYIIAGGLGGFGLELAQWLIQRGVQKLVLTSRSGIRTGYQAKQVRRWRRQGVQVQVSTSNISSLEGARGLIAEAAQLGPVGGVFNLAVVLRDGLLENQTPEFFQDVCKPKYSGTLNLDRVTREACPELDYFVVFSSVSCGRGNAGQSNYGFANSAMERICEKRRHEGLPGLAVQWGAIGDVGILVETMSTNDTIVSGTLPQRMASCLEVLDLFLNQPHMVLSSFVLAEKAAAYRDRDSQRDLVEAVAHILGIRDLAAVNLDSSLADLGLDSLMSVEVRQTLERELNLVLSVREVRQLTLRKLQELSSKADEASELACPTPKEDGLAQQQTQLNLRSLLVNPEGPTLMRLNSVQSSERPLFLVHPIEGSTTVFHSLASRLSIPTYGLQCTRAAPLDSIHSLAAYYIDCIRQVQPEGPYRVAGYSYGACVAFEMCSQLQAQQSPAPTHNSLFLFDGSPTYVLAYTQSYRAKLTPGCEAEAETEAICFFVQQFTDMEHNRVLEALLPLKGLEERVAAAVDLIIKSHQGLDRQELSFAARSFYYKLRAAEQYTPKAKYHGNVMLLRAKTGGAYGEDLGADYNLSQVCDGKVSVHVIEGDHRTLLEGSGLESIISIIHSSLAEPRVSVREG
row,SMILES,IC50 [nM]
1,COc1ccc(N(C(=O)n2nnn(-c3c(F)cccc3OC)c2=O)C2CCCC2)cc1C(=O)OCc1ccccc1,< 15
2,CCN(C(=O)n1nnn(-c2c(F)cccc2F)c1=O)c1c(F)cccc1F,< 15
3,COc1ccc(N(C(=O)n2nnn(-c3c(F)cccc3F)c2=O)C2CCCCC2)c(OC)c1C(=O)O,15 to 100
4,CCOC(=O)N1CCN(c2ccc(N(C(=O)n3nnn(-c4c(F)cccc4F)c3=O)C3CCCCC3)cc2C(=O)O)CC1,< 15
5,COCCOCOc1ccc(N(C(=O)n2nnn(-c3c(F)cccc3F)c2=O)C2CCCCC2)cc1C(=O)O,< 15
6,COc1ccc(N(C(=O)n2nnn(-c3c(F)cccc3C(=O)N(C)C)c2=O)C(C)C)cc1C(=O)OCc1ccccc1,< 15
7,CCN(C(=O)n1nnn(-c2c(Cl)cccc2Cl)c1=O)c1ccc(C(=O)O)cc1Cl,< 15
8,COc1ccc(N(C(=O)n2nnn(-c3c(F)cccc3F)c2=O)C2CCCCC2)cc1C(=O)NC(C)(C)C(=O)O,< 15
9,COc1ccc(C(=O)O)cc1N(C(=O)n1nnn(-c2c(F)cccc2OC(C)C)c1=O)C1CCCCC1,15 to 100
10,COc1cccc(F)c1-n1nnn(C(=O)N(c2cccc(F)c2)C(C)(C)C)c1=O,200 to 5000
11,CCOC(=O)c1cc(C)n(-c2ccc(N(C(=O)n3nnn(-c4c(F)cccc4F)c3=O)C3CCCCC3)cc2C(=O)OCc2ccccc2)n1,< 15
12,CCC(CC)N(C(=O)n1nnn(-c2c(F)cccc2F)c1=O)c1cccc(C(=O)O)c1,15 to 100
13,COc1ccc(COC(=O)[C@H]2CC[C@H](N(C(=O)n3nnn(-c4c(F)cccc4OC)c3=O)c3ccccc3)CC2)cc1,15 to 100
14,CCN(C(=O)n1nnn(-c2c(F)cccc2F)c1=O)c1cc(C(=O)O)ccc1OC(C)C,15 to 100
15,CC(C)(C)OC(=O)N1CCN(c2ccc(N(C(=O)n3nnn(-c4c(F)cccc4F)c3=O)C3CCCCC3)cc2C(=O)OCc2ccccc2)CC1,< 15
16,Nc1ccc(N(C(=O)n2nnn(-c3c(F)cccc3F)c2=O)C2CCCCC2)cc1C(=O)O,< 15
17,O=C(O)c1cc(N(C(=O)n2nnn(-c3c(F)cccc3F)c2=O)C2CCCCC2)ccc1O,< 15

row,SMILES,IC50 [nM]
1,COc1ccc(N(C(=O)n2nnn(-c3ccccc3OC)c2=O)C(C)C)cc1C(=O)OCc1ccccc1,< 15
2,CC(C)(C)OC(=O)Nc1ccc(N(C(=O)n2nnn(-c3c(F)cccc3F)c2=O)C2CCCCC2)cc1C(=O)O,< 15
3,CCN(C(=O)n1nnn(-c2ccccc2OC)c1=O)c1ccc(OC)cc1,100 to 200
4,COc1cc(Oc2ccccc2)c(N(C(=O)n2nnn(-c3c(F)cccc3F)c2=O)C2CCCC2)cc1C(=O)O,< 15
5,O=C(O)c1cc(N(C(=O)n2nnn(-c3c(F)cccc3F)c2=O)C2CCCCC2)cc2c1OCC2,< 15
6,CCC(C)N(C(=O)n1nnn(-c2c(F)cccc2OC)c1=O)c1cccc(C(=O)O)c1 (centres unmarked),< 15
7,COc1ccc(COC(=O)c2cc(N(C(=O)n3nnn(-c4c(F)cccc4OC)c3=O)C(C)C)ccc2OCCc2ccccc2)cc1,< 15
8,CCN(C(=O)n1nnn(-c2c(F)cccc2F)c1=O)c1cc(C(=O)O)ccc1OCCc1ccccc1,< 15
9,CC(C)N(C(=O)n1nnn(-c2c(F)cccc2F)c1=O)c1ccc(C(=O)O)cc1F,< 15
10,CCNC(=O)Nc1ccc(N(CC)C(=O)n2nnn(-c3c(F)cccc3F)c2=O)c(F)c1,< 15
11,O=C(O)c1cc(N(C(=O)n2nnn(-c3c(F)cccc3F)c2=O)C2CCCCC2)ccc1OC(=O)N1CCOCC1,< 15
12,COc1cc(C(=O)O)cc(N(C(=O)n2nnn(-c3c(F)cccc3F)c2=O)C(C)C)c1,< 15
13,COc1ccc(N(C(=O)n2nnn(-c3c(F)cccc3F)c2=O)C2CCCCC2)cc1C(N)=O,< 15
14,COc1cccc(F)c1-n1nnn(C(=O)N(c2cccc(C(=O)O)c2)C(C)(C)C)c1=O,200 to 5000
15,CCN(C(=O)n1nnn(-c2c(F)cccc2OC)c1=O)c1cc(Oc2ccc(C(=O)O)cc2)ccc1C,15 to 100
16,COc1ccc(N(C(=O)n2nnn(-c3c(F)cccc3C(=O)N(C)C)c2=O)C(C)C)cc1C(=O)O,200 to 5000

# Target: T1, human FASN
# Experiment: FASN NADPH Consumption Assay
# Type: biochemical
# Conditions: human FASN purified from SKBR3 cells; starred symbols
# In short: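 Native human FASN purified from SKBR3 cells (60 nM final) preincubated 30 min at 37 °C with compound (2.4 nM–40 μM, 4% DMSO) in pH 7.0 phosphate buffer with 5 mM DTT. Reaction started with 0.2 mM NADPH, 50 μM butyryl-CoA, 0.5 mM malonyl-CoA; NADPH consumption followed kinetically by fluorescence (ex 340/em 460 nm); IC50 from logistic fit.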
row,SMILES,IC50 [nM]
1,CC(C)C[C@@H](NC=O)C(=O)NCCCN(C(=O)n1nnn(-c2c(Cl)cccc2Cl)c1=O)C1CCCCC1,> 10000
2,CNC(=O)CN(C(=O)n1nnn(-c2c(Cl)cccc2Cl)c1=O)C1CCCCC1,1000 to 10000
3,O=C(N1CCCc2cc([N+](=O)[O-])ccc21)n1nnn(-c2c(F)cccc2F)c1=O,1000 to 10000
4,Cc1ccccc1CCc1cccc(F)c1-n1nnn(C(=O)N2CCCCc3ccccc32)c1=O,60 to 250
5,CCN(C(=O)n1nnn(-c2c(Cl)cccc2Cl)c1=O)c1cccc(N)c1,60 to 250
6,CCN(C(=O)n1nnn(-c2c(C)cccc2C(C)(C)C)c1=O)C1CCCCC1,> 10000
7,CC(C)N(C(=O)n1nnn(-c2ccccc2Cl)c1=O)C1CCCCC1,> 10000
8,CCN(C(=O)n1nnn(-c2c(Cl)cccc2Cl)c1=O)[C@@H]1CCC[C@@H](C(=O)N2CCOCC2)C1,1000 to 10000
9,C[C@@H]1CC(=O)[C@@H]2CCCC[C@H]2N1C(=O)n1nnn(-c2c(F)cccc2F)c1=O,1000 to 10000
10,COc1ccc(C(=O)O)cc1N(CCCc1ccccc1)C(=O)n1nnn(-c2ccccc2OC)c1=O,250 to 1000
11,CCN(C(=O)n1nnn(-c2c(Cl)cccc2Cl)c1=O)c1cccc([N+](=O)[O-])c1,60 to 250
12,O=C(O)c1ccc(N(CCc2ccccc2)C(=O)n2nnn(-c3ccccc3)c2=O)cc1,250 to 1000
13,CCN(C(=O)n1nnn(-c2c(F)cccc2F)c1=O)c1ccc(C#CC(C)(C)C)cc1F,60 to 250
14,CCN(C(=O)n1nnn(-c2ccc(C(F)(F)F)cc2)c1=O)C1CCCCC1,> 10000
15,CC(=O)N[C@H]1CCN(C(=O)n2nnn(-c3c(Cl)cccc3Cl)c2=O)C1,> 10000
16,CC(C)(C)OC(=O)NC1CCCN(C(=O)n2nnn(-c3c(Cl)cccc3Cl)c2=O)C1 (centres unmarked),1000 to 10000
17,CCN(C(=O)n1nnn(-c2c(C)cc(C)cc2C)c1=O)C1CCCCC1,> 10000
18,CCN(C(=O)n1nnn(-c2c(Cl)cccc2Cl)c1=O)C1CCCN(S(C)(=O)=O)C1 (centres unmarked),1000 to 10000
19,CCN(C(=O)n1nnn(-c2c(Cl)cccc2Cl)c1=O)c1ccc(C(=O)OCc2ccccc2)c(Cl)c1,60 to 250
20,CCCN(C)C(=O)n1nnn(-c2ccccc2Cl)c1=O,> 10000
21,CC(=O)NC1CCCN(C(=O)n2nnn(-c3c(Cl)cccc3Cl)c2=O)C1 (centres unmarked),> 10000
22,CN(C(=O)n1nnn(-c2ccccc2Cl)c1=O)c1ccc(Br)cc1,60 to 250
23,CC(=O)NCCN(C(=O)n1nnn(-c2c(Cl)cccc2Cl)c1=O)C1CCCCC1,> 10000
24,COc1ccc(C(=O)OCc2ccccc2)cc1N(CCCCc1ccccc1)C(=O)n1nnn(-c2ccccc2OC)c1=O,1000 to 10000
25,CCNC(=O)NCCCN(C(=O)n1nnn(-c2c(Cl)cccc2Cl)c1=O)C1CCCCC1,1000 to 10000
26,CN1C2CCC1CC(N(CCc1ccccc1)C(=O)n1nnn(-c3c(Cl)cccc3Cl)c1=O)C2 (centres unmarked),> 10000
27,CN(C(=O)n1nnn(-c2ccccc2Br)c1=O)c1ccccc1,250 to 1000
28,CCN(C(=O)n1nnn(-c2cccs2)c1=O)C1CCCCC1,1000 to 10000
29,CCNC(=O)N1CCCC(N(CC)C(=O)n2nnn(-c3c(Cl)cccc3Cl)c2=O)C1 (centres unmarked),1000 to 10000
